# Data reported in patent US9340575B2, “Agonists and antagonists of the urotensinergic system” (INSTITUT NATIONAL DE LA RECHERCHE SCIENTIFIQUE, priority 2011, dated 2016).
# Where two headings read alike, the source gives them in different places. Marks after values point to notes of the source that are not given here. Bridge positions count the residues as written; N and C are the ends. Ends that are not written are not given here.
# Key:
# rat thoracic aorta rings = format: cell-based; conditions: for Aortic Ring contraction pEC50: endothelium-denuded rat thoracic aorta; for Aortic Ring contraction Emax (%): percentage of contraction induced by KCl (40 mM); for Aortic Ring contraction Emax (%), maximum efficacy at 10^−5.5M: percentage of KCl (40 mM) contraction
# Procedure: Binding and functional experiments were performed at least in triplicate and data, expressed as mean±S.E.M, were analyzed using the Prism software (Graph Pad Software, San Diego, Calif.). In all experiments, n represents the total number of animals studied or individual assays performed. The EC50, pEC50, pIC50 values as well as the Emax value were determined from the concentration-response curves using a sigmoidal dose-response fit with variable slope. […] The slope is calculated from the double reciprocal plot of equiactive concentrations of agonist in the presence and absence of antagonist.
# [1] = biological target: T1, human urotensin II receptor (UT) (Homo sapiens, UniProt Q9UKP6); test: Competitive radioligand binding on CHO-UT cells; conditions: for IC50: 125I-hUII 0.2 nM, CHO-UT cells, 95% confidence limits in parentheses, read-out: Binding IC50
# T1 construct: expressed in transfected cells; host or cells: CHO cells (CHO-UT), stably transfected, G418 selection
# T1 sequence (Q9UKP6 1-389): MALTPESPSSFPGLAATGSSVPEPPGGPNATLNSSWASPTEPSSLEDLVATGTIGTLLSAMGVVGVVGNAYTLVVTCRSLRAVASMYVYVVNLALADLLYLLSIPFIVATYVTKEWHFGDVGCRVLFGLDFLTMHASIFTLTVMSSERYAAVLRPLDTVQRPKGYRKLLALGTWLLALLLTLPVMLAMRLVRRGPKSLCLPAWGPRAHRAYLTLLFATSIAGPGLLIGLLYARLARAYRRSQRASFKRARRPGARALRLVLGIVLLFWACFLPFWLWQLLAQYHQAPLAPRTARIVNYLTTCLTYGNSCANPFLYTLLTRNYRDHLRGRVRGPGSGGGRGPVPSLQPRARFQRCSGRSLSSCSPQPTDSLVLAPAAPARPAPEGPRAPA
# Procedure: Transfected CHO cells expressing the human urotensin receptor (CHO-UT) were maintained in Ham-F12 medium with 10% fetal bovine serum (FBS), 2 mM L-glutamine, 100 UI/mL each of penicillin and streptomycin, and 400 μg/mL G418. […] Binding assays were following known literature procedures using CHO cells stably transfected with hGPR14. […] After 90 min of incubation at room temperature, cells were washed, lysed, and the cell-bound radioactivity was quantified using a γ-counter. […] The cells were then washed, lysed, and the radioactivity counted on a γ-counter (1470 Automatic Gamma Counter, Perkin Elmer). Binding and functional experiments were performed at least in triplicate and data, expressed as mean±S.E.M, were analyzed using the Prism software (Graph Pad Software, San Diego, Calif.). In all experiments, n represents the total number of animals studied or individual assays performed. The EC50, pEC50, pIC50 values as well as the Emax value were determined from the concentration-response curves using a sigmoidal dose-response fit with variable slope. […] The slope is calculated from the double reciprocal plot of equiactive concentrations of agonist in the presence and absence of antagonist.
# anaesthetized rats = test: Hemodynamic assessment (arterial blood pressure) in anaesthetized rats; format: in vivo, rat
# Procedure: Male Sprague-Dawley rats, weighing 350-400 g, were anaesthetized by isoflurane inhalation delivered in 100% oxygen (1 l/min) from an Ohmeda Tec 4 anaesthetic vaporizer (Somatechnology, Inc., Bloomfield, Conn., USA). Anaesthesia was maintained by mask inhalation of isoflurane vaporized at concentrations of up to 3% in the induction phase, at 1.5% during acute surgical procedures and at 0.8-1.0% during experimental observations. […]. […] A period of stabilisation of 30 min was observed and the following experimental protocols were then performed and arterial blood pressure was evaluated. During isoflurane inhalation, no breathing complications or changes in blood pressure were observed. […].
# In a preliminary study, individual rats received a single i.v. injection of hUII ranging from 1 to 30 nmol/kg. A dose-response curve, reflecting the effect of hUII on the change in blood pressure, was then determined.
# In this set of experiments, five groups of rats were used. […] […]. Hemodynamic changes were continuously captured by the pressure probe over a period of 1 h. The maximum rise and the maximum drop in blood pressure was determined and analyzed using the PowerLab software (ADInstruments, Colorado Springs, Colo., USA).
# In the control group, the rats received two doses of hUII (10 nmol/kg) with a 30 min interval between the first and second injection.
EC50 (rat thoracic aorta rings) [nM],Aortic Ring contraction pEC50 (rat thoracic aorta rings),Compound,Aortic Ring contraction Emax (%) (rat thoracic aorta rings),other results
117,6.93 ± 0.09,"CC(C)[C@H](NC(=O)[C@@H]1CSSC[C@H](NC(=O)[C@H](C)N)C(=O)N[C@@H](Cc2ccccc2)C(=O)N[C@H](c2ccccc2)C(=O)N[C@@H](CCCCN)C(=O)N[C@@H](Cc2ccc(O)cc2)C(=O)N1)C(=O)O [Compound 15, [D-Phg^4]URP]",116 ± 5,Binding affinity for UT (in words) [1]: high binding affinity; IC50 [1]: 29 nM
259,6.08 ± 0.04,"CC(C)[C@H](NC(=O)[C@@H]1CSSC[C@H](NC(=O)[C@H](C)N)C(=O)N[C@@H](Cc2ccccc2)C(=O)N2Cc3ccccc3C[C@@H]2C(=O)N[C@@H](CCCCN)C(=O)N[C@@H](Cc2ccc(O)cc2)C(=O)N1)C(=O)O [Compound 19, [D-Tic^4]URP]",128 ± 12,–
> 1000,<6,"CC(C)[C@H](NC(=O)[C@@H]1CSSC[C@H](NC(=O)[C@H](C)N)C(=O)N[C@@H](Cc2ccccc2)C(=O)N2Cc3ccccc3C[C@H]2C(=O)N[C@@H](CCCCN)C(=O)N[C@@H](Cc2ccc(O)cc2)C(=O)N1)C(=O)O [Compound 18, H-Ala-Cys-Phe-Tic-Lys-Tyr-Cys-Val-OH]",–,"Binding affinity for UT (in words) [1]: dramatic loss of binding affinity; Aortic Ring contraction Emax (%), maximum efficacy at 10^−5.5M (rat thoracic aorta rings): 43%"
159,–,"CC(C)[C@H](NC(=O)[C@@H]1CSSC[C@H](NC(=O)[C@H](C)N)C(=O)N[C@@H](Cc2ccccc2)C(=O)N[C@@H]2Cc3c([nH]c4ccccc34)CN(C2=O)[C@@H](CCCCN)C(=O)N[C@@H](Cc2ccc(O)cc2)C(=O)N1)C(=O)O [Compound 13, [D-Aia^4]URP]",–,–
181,6.42 ± 0.13,"CC(C)[C@H](NC(=O)[C@@H]1CSSC[C@H](NC(=O)[C@H](C)N)C(=O)N[C@@H](Cc2ccccc2)C(=O)N[C@H]2Cc3c([nH]c4ccccc34)CN(C2=O)[C@@H](CCCCN)C(=O)N[C@@H](Cc2ccc(O)cc2)C(=O)N1)C(=O)O [Compound 12, H-Ala-Cys-Phe-Aia-Lys-Tyr-Cys-Val-OH]",51 ± 4,Binding affinity for UT (in words) [1]: low binding affinity
251,6.60 ± 0.15,"CC(C)[C@H](NC(=O)[C@@H]1CSSC[C@H](NC(=O)[C@H](C)N)C(=O)N[C@@H](Cc2ccccc2)C(=O)N[C@@H](c2ccccc2)C(=O)N[C@@H](CCCCN)C(=O)N[C@@H](Cc2ccc(O)cc2)C(=O)N1)C(=O)O [Compound 14, H-Ala-Cys-Phe-Phg-Lys-Tyr-Cys-Val-OH]",102 ± 9,Binding affinity for UT (in words) [1]: high binding affinity; IC50 [1]: 29 nM
21,7.68 ± 0.17,"CC(C)[C@H](NC(=O)[C@@H]1CSSC[C@H](NC(=O)[C@H](C)N)C(=O)N[C@@H](Cc2ccccc2)C(=O)N2CCc3ccccc3[C@@H]2C(=O)N[C@@H](CCCCN)C(=O)N[C@@H](Cc2ccc(O)cc2)C(=O)N1)C(=O)O [Compound 17, [D-Tiq^4]URP]",113 ± 7,–

# The remaining lines, values behind:
Compound,EC50 (rat thoracic aorta rings) [nM],Aortic Ring contraction pEC50 (rat thoracic aorta rings),Aortic Ring contraction Emax (%) (rat thoracic aorta rings),other results
"CC(C)[C@H](NC(=O)[C@@H]1CSSC[C@H](NC(=O)[C@H](C)N)C(=O)N[C@@H](Cc2ccccc2)C(=O)N[C@@H](Cc2cccc3ccccc23)C(=O)N[C@@H](CCCCN)C(=O)N[C@@H](Cc2ccc(O)cc2)C(=O)N1)C(=O)O [Compound 3, H-Ala-Cys-Phe-Nal-Lys-Tyr-Cys-Val-OH]",54,7.27 ± 0.24,86 ± 8,Agonist behaviour in aortic ring contraction (in words) (rat thoracic aorta rings): almost equipotent analog
"CC(C)[C@H](NC(=O)[C@@H]1CSSC[C@H](NC(=O)[C@H](C)N)C(=O)N[C@@H](Cc2ccccc2)C(=O)N[C@@H](C(c2ccccc2)c2ccccc2)C(=O)N[C@@H](CCCCN)C(=O)N[C@@H](Cc2ccc(O)cc2)C(=O)N1)C(=O)O [Compound 9, H-Ala-Cys-Phe-Dip-Lys-Tyr-Cys-Val-OH]",> 1000,<6,–,"Agonist behaviour in aortic ring contraction (in words) (rat thoracic aorta rings): weak UT agonist; Aortic Ring contraction Emax (%), maximum efficacy at 10^−5.5M (rat thoracic aorta rings): 23^d %"
"CC(C)[C@H](NC(=O)[C@@H]1CSSC[C@H](NC(=O)[C@H](C)N)C(=O)N[C@@H](Cc2ccccc2)C(=O)N[C@H](C(C)(C)C)C(=O)N[C@@H](CCCCN)C(=O)N[C@@H](Cc2ccc(O)cc2)C(=O)N1)C(=O)O [Compound 8, [D-Tbg^4]URP]",262,–,–,–
"CC(C)[C@H](NC(=O)[C@@H]1CSSC[C@H](NC(=O)[C@H](CC(=O)O)NC(=O)[C@@H]2CCCN2C(=O)[C@@H](NC(=O)[C@@H](N)CCC(=O)O)[C@@H](C)O)C(=O)N[C@@H](Cc2ccccc2)C(=O)N[C@@H](Cc2c[nH]c3ccccc23)C(=O)N[C@@H](CCCCN)C(=O)N[C@@H](Cc2ccc(O)cc2)C(=O)N1)C(=O)O [Compound 1, reference compound]",1,9.08 ± 0.25,117 ± 7,"Aortic Ring contraction pEC50 (rat thoracic aorta rings; listed as hUII): 8.98±0.21; Aortic Ring contraction Emax (%) (rat thoracic aorta rings; listed as hUII): 124±8%; Hemodynamic response to bolus i.v. injection (anaesthetized rats; 0.01 μmol/kg i.v.): biphasic hemodynamic response; Time of hypotension nadir (anaesthetized rats; 0.01 μmol/kg i.v.): ~6 min; Time of pressor phase peak (anaesthetized rats; 0.01 μmol/kg i.v.): ~1 min; Response to repeated injections (anaesthetized rats; 10 nmol/kg twice, 30 min interval): equivalent biphasic responses; Effect of prior hUII injection on hypotensive effect of URP (anaesthetized rats; URP injected 30 min after hUII, 10 nmol/kg): significantly reduced; Dose giving the most significant drop in blood pressure (anaesthetized rats; single i.v. injection, 1 to 30 nmol/kg tested): 10 nmol/kg"
[Pro^7]hUII: hUII in which the Trp residue is replaced by a Pro moiety (ETPDCFPKYCV-OH; disulfide 5-10 (inferred)),–,–,–,"Agonist behaviour in aortic ring contraction (in words) (rat thoracic aorta rings): weak agonistic effect; Aortic Ring contraction Emax (%), maximum efficacy at 10^−5.5M (rat thoracic aorta rings): 69%"
"CC(C)[C@H](NC(=O)[C@@H]1CSSC[C@H](NC(=O)[C@H](C)N)C(=O)N[C@@H](Cc2ccccc2)C(=O)N[C@H](Cc2cccc3ccccc23)C(=O)N[C@@H](CCCCN)C(=O)N[C@@H](Cc2ccc(O)cc2)C(=O)N1)C(=O)O [Compound 4, [D-1-Nal^4]URP]",825,6.08 ± 0.04,–,"Aortic Ring contraction Emax (%), maximum efficacy at 10^−5.5M (rat thoracic aorta rings): 34%"
"CC(C)[C@H](NC(=O)[C@@H]1CSSC[C@H](NC(=O)[C@H](C)N)C(=O)N[C@@H](Cc2ccccc2)C(=O)N[C@@H](Cc2ccc(I)cc2)C(=O)N[C@@H](CCCCN)C(=O)N[C@@H](Cc2ccc(O)cc2)C(=O)N1)C(=O)O [Compound 5, H-Ala-Cys-Phe-Phe(I)-Lys-Tyr-Cys-Val-OH]",–,–,–,Drop in binding affinity on substitution of Trp ([1]; versus native peptide): 4 fold
"CC(C)[C@H](NC(=O)[C@@H]1CSSC(C)(C)[C@H](NC(=O)[C@H](C)N)C(=O)N[C@@H](Cc2ccccc2)C(=O)N2CCc3ccccc3[C@H]2C(=O)N[C@@H](CCCCN)C(=O)N[C@@H](Cc2ccc(O)cc2)C(=O)N1)C(=O)O [Compound 20, H-Ala-Pen-Phe-Tiq-Lys-Tyr-Cys-Val-OH]",–,–,–,IC50 [1]: > 10000 nM
